± gives the expanded uncertainty stated by the source.
Details: 101.33 kPa, Liquid, Vibrating tube method

CCCCCCCC[n+]1ccn(C)c1.N#C[S-] [1-methyl-3-octyl-1H-imidazolium thiocyanate]
Details | mass density [kg/m3]
288.15 K | 1014 ± 0.2
293.15 K | 1011.1 ± 0.2
298.15 K | 1008.3 ± 0.2
303.15 K | 1005.4 ± 0.2
308.15 K | 1002.6 ± 0.2
313.15 K | 999.7 ± 0.2
318.15 K | 996.7 ± 0.2
323.15 K | 994.1 ± 0.2
328.15 K | 991.3 ± 0.2
333.15 K | 988.4 ± 0.2
338.15 K | 985.6 ± 0.2
343.15 K | 982.9 ± 0.2

Source: the NIST ThermoML archive (doi:10.1016/j.jct.2012.05.006)
